In patent US9079866B2, “Flap modulators” (JANSSEN PHARMACEUTICA NV, priority 2013, dated 2015):
Where two headings read alike, the source gives them in different places.

What was measured:
human FLAP = human FLAP (Homo sapiens (Human), UniProt P20292); experiment: FLAP binding assay (HTRF format); details: human FLAP wild type, HTRF format; average of two plates, duplicates
How it was run: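 Samples were run in duplicate on each of two assay plates, the results were averaged, and the signal was expressed as an HTRF ratio.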

[1] = system: leukotriene pathway in human whole blood (LTB4 levels); experiment: Human whole blood assay (A23187-stimulated LTB4); type: cell-based; details: human whole blood diluted 1:1 in RPMI, A23187-stimulated LTB4, read-out: LTB4 IC50 1:1
How it was run: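 Heparinised human whole blood, diluted 1:1 in RPMI, was pre-incubated with test compounds for 15 min at 37° Celsius, then stimulated with A23187 (7 μg/mL) for 30 min at 37° Celsius. Plasma LTB4 was measured by immunoassay kit; IC50 from 4-parameter fit; single replicate, at least one healthy donor.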

human FLAP, sequence (P20292 whole entry): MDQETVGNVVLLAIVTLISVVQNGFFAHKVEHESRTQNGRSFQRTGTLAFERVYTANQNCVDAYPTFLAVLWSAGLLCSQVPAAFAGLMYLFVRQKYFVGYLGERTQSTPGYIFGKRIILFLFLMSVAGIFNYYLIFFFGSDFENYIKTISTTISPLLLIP

Compound	Ki (human FLAP)	IC50 ([1]; Homo sapiens)	IC50 [1]
Nc1cnc(-c2ccc(-c3ccccc3S(=O)(=O)N3CC(O)C3)cc2F)cn1 [Example 119, 1-{[4′-(5-Aminopyrazin-2-yl)-3′-fluorobiphenyl-2-yl]sulfonyl}azetidin-3-ol]	3 nM	22 nM	
Nc1cnc(-c2ccc(-c3ccccc3S(=O)(=O)NC3CCNCC3)cc2F)cn1 [Example 123, 4′-(5-Aminopyrazin-2-yl)-3′-fluoro-N-piperidin-4-ylbiphenyl-2-sulfonamide]	83 nM	1120 nM	
NCC1CN(S(=O)(=O)c2ccccc2-c2ccc(-c3cnc(N)cn3)c(F)c2)C1 [Example 124, 5-(2′-{[3-(Aminomethyl)azetidin-1-yl]sulfonyl}-3-fluorobiphenyl-4-yl)pyrazin-2-amine]	35 nM	217 nM	
Nc1cnc(-c2ccc(-c3ccccc3S(=O)(=O)NCC3CNC3)cc2F)cn1 [Example 125, 4′-(5-Aminopyrazin-2-yl)-N-(azetidin-3-ylmethyl)-3′-fluorobiphenyl-2-sulfonamide]	50 nM	> 10000 nM	
Nc1cnc(-c2ccc(-c3ccccc3S(=O)(=O)N3CCC(n4cn[nH]c4=O)CC3)cc2F)cn1 [Example 129, 4-(1-{[4′-(5-Aminopyrazin-2-yl)-3′-fluorobiphenyl-2-yl]sulfonyl}piperidin-4-yl)-2,4-dihydro-3H-1,2,4-triazol-3-one]	4 nM	534 nM	
Nc1cnc(-c2ccc(-c3ccccc3S(=O)(=O)N3C[C@H]4C[C@@H]3CN4)cc2F)cn1 [Example 130, 5-(2′-((1R,4R)-2,5-Diazabicyclo[2.2.1]heptan-2-ylsulfonyl)-3-fluoro-[1,1′-biphenyl]-4-yl)pyrazin-2-amine]	129 nM	633 nM	
Nc1cnc(-c2ccc(-c3ccccc3S(=O)(=O)N3C[C@@H]4C[C@H]3CN4)cc2F)cn1 [Example 131, 5-(2′-((1S,4S)-2,5-Diazabicyclo[2.2.1]heptan-2-ylsulfonyl)-3-fluoro-[1,1′-biphenyl]-4-yl)pyrazin-2-amine]	144 nM	695 nM	
Nc1cnc(-c2ccc(-c3ccccc3S(=O)(=O)N3CCC[C@H](N)C3)cc2F)cn1 [Example 137, (S)-5-{2′-[(3-Aminopiperidin-1-yl)sulfonyl]-3-fluorobiphenyl-4-yl}pyrazin-2-amine]	3 nM	44 nM	
Nc1cnc(-c2ccc(-c3ccccc3S(=O)(=O)N(CCO)CCO)cc2F)cn1 [Example 138, 4′-(5-Aminopyrazin-2-yl)-3′-fluoro-N,N-bis(2-hydroxyethyl)biphenyl-2-sulfonamide]	11 nM	174 nM	
Nc1cnc(-c2ccc(-c3ccccc3S(=O)(=O)N3C[C@@H]4C(N)[C@@H]4C3)cc2F)cn1 (stereo partly drawn) [Example 143, endo-3-((4′-(5-Aminopyrazin-2-yl)-3′-fluoro-[1,1′-biphenyl]-2-yl)sulfonyl)-3-azabicyclo[3.1.0]hexan-6-amine]	8 nM	49 nM	
C[C@H]1CNCCN1S(=O)(=O)c1ccccc1-c1ccc(-c2cnc(N)cn2)c(F)c1 [Example 144, (S)-5-(3-Fluoro-2′-((2-methylpiperazin-1-yl)sulfonyl)-[1,1′-biphenyl]-4-yl)pyrazin-2-amine]	15 nM	97 nM	
C[C@@H]1CNCCN1S(=O)(=O)c1ccccc1-c1ccc(-c2cnc(N)cn2)c(F)c1 [Example 145, (R)-5-(3-Fluoro-2′-((2-methylpiperazin-1-yl)sulfonyl)-[1,1′-biphenyl]-4-yl)pyrazin-2-amine]	17 nM	21 nM	
Nc1cnc(-c2ccc(-c3ccccc3S(=O)(=O)N3CCNC[C@@H]3CO)cc2F)cn1 [Example 146, (R)-(1-((4′-(5-Aminopyrazin-2-yl)-3′-fluoro-[1,1′-biphenyl]-2-yl)sulfonyl)piperazin-2-yl)methanol]	19 nM	168 nM	
CC(C)[C@@H](CO)NS(=O)(=O)c1ccccc1-c1ccc(-c2cnc(N)cn2)c(F)c1 [Example 148, (S)-4′-(5-Aminopyrazin-2-yl)-3′-fluoro-N-(1-hydroxy-3-methylbutan-2-yl)-[1,1′-biphenyl]-2-sulfonamide]	2 nM	8 nM	
CC(C)(C)[C@@H](CO)NS(=O)(=O)c1ccccc1-c1ccc(-c2cnc(N)cn2)c(F)c1 [Example 149, (S)-4′-(5-Aminopyrazin-2-yl)-3′-fluoro-N-(1-hydroxy-3,3-dimethylbutan-2-yl)-[1,1′-biphenyl]-2-sulfonamide]	5 nM	82 nM	

Other lines, results leading:

Ki (human FLAP)	IC50 ([1]; Homo sapiens)	IC50 [1]	Compound
1 nM	7 nM		Nc1cnc(-c2ccc(-c3ccccc3S(=O)(=O)NC[C@H](O)c3ccccc3)cc2F)cn1 [Example 117, (R)-4′-(5-Aminopyrazin-2-yl)-3′-fluoro-N-(2-hydroxy-2-phenylethyl)-[1,1′-biphenyl]-2-sulfonamide]
2 nM		35 nM	C[C@@H](NS(=O)(=O)c1ccccc1-c1ccc(-c2cnc(N)cn2)c(F)c1)C(F)(F)F [Example 127, (R)-4′-(5-Aminopyrazin-2-yl)-3′-fluoro-N-(2,2,2-trifluoro-1-methylethyl)biphenyl-2-sulfonamide]
1 nM	38 nM		Nc1cnc(-c2ccc(-c3ccccc3S(=O)(=O)N3CCc4[nH]ncc4C3)cc2F)cn1 [Example 128, 5-[3-Fluoro-2′-(1,4,6,7-tetrahydro-5H-pyrazolo[4,3-c]pyridin-5-ylsulfonyl)biphenyl-4-yl]pyrazin-2-amine]
2 nM	11 nM		Nc1cnc(-c2ccc(-c3ccccc3S(=O)(=O)NCCCCCO)cc2F)cn1 [Example 132, 4′-(5-Aminopyrazin-2-yl)-3′-fluoro-N-(5-hydroxypentyl)biphenyl-2-sulfonamide]
1 nM	32 nM		Nc1cnc(-c2ccc(-c3ccccc3S(=O)(=O)NCCCCCCO)cc2F)cn1 [Example 133, 4′-(5-Aminopyrazin-2-yl)-3′-fluoro-N-(6-hydroxyhexyl)biphenyl-2-sulfonamide]
1 nM	> 1000 nM		Nc1cnc(-c2ccc(-c3ccccc3S(=O)(=O)N[C@H]3CC[C@@H](N)CC3)cc2F)cn1 [Example 134, cis-N-(4-Aminocyclohexyl)-4′-(5-aminopyrazin-2-yl)-3′-fluorobiphenyl-2-sulfonamide]
1 nM	15 nM		Nc1cnc(-c2ccc(-c3ccccc3S(=O)(=O)N(CCO)C3CCCCC3)cc2F)cn1 [Example 136, 4′-(5-Aminopyrazin-2-yl)-N-cyclohexyl-3′-fluoro-N-(2-hydroxyethyl)biphenyl-2-sulfonamide]
1 nM	11 nM		Nc1cnc(-c2ccc(-c3ccccc3S(=O)(=O)N(C3CCOCC3)C3CC3)cc2F)cn1 [Example 140, 4′-(5-Aminopyrazin-2-yl)-N-cyclopropyl-3′-fluoro-N-(tetrahydro-2H-pyran-4-yl)biphenyl-2-sulfonamide]
1 nM	3 nM		CC(C)N(CCO)S(=O)(=O)c1ccccc1-c1ccc(-c2cnc(N)cn2)c(F)c1 [Example 141, 4′-(5-Aminopyrazin-2-yl)-3′-fluoro-N-(2-hydroxyethyl)-N-(1-methylethyl)biphenyl-2-sulfonamide]
1 nM	102 nM		CC(CO)(CO)NS(=O)(=O)c1ccccc1-c1ccc(-c2cnc(N)cn2)c(F)c1 [Example 147, 4′-(5-Aminopyrazin-2-yl)-3′-fluoro-N-[2-hydroxy-1-(hydroxymethyl)-1-methylethyl]biphenyl-2-sulfonamide]
